The conditions of the series: in ethanol.

For `N#Cc1ccc(C(=O)O)cc1`, the solubility (mole fraction) amounted to 0.0214 (298.15 K); 0.0266 (303.15 K); 0.0331 (308.15 K); 0.0353 (313.15 K); 0.044 (318.15 K).
In the same order, the values of `COc1cc(OC)cc(C(=O)O)c1` are 0.00493, 0.00607, 0.00746, 0.00934 and 0.0116.
The corresponding values for `O=C(O)c1ccc(Cl)cc1Cl` are 0.0581, 0.0693, 0.0817, 0.0953 and 0.118.
The corresponding values for `CC(=O)Oc1ccc(C(=O)O)cc1` are 0.0249, 0.0302, 0.0358, 0.0432 and 0.0522.
Regarding `Nc1cc(N)cc(C(=O)O)c1`, the solubility (mole fraction) runs as follows: (298.15 K) 0.00334; (303.15 K) 0.00342; (308.15 K) 0.004; (313.15 K) 0.00441; (318.15 K) 0.00519.

The values are drawn from BigSolDB 2.1.
